In patent US10758473B2, “Extract of plant origin of globularia and method for obtaining said extract by in vitro plant culture” (Sederma, priority 2011, dated 2020):

How the values were obtained:
[1] = target: bovine serum albumin (BSA) (Bos taurus, UniProt P02769); assay: Non-enzymatic glycation of BSA; assay type: biochemical
Protocol: 1) Non-Enzymatic Glycation of BSA
This simple test reproduces in vitro a stress to which regular skin proteins are subjected: their functional alteration by a non-enzymatic glycation phenomenon.
The study model used is a bovine serum albumin (BSA), which is contacted with a physiological reducing sugar, the fructose, giving a spontaneous and slow reaction between the two molecules that can be accelerated by temperature. In this test, the BSA and fructose are incubated in the presence or absence of the test products at 50° C. for 7 days. The glycation end products have a natural fluorescence that can be quantified using a fluorimeter (λex=360 nm and λem=460 nm). 0.03% Aminoguanidine is used as a positive control of glycation inhibition.
The anti-glycation effect of the extract of Globularia cordifolia was studied using a protein model, BSA and a natural reducing sugar, fructose which glycates, i.e. binds, to the protein in a non-enzymatic manner. The product of this binding is fluorescent and is monitored with a recording system.

[2] = system: mitochondrial membrane potential; assay: Mitochondrial membrane potential in fibroblasts after H2O2 stress; assay type: cell-based, human; conditions: Trolox at 500 μm
Protocol: Human dermal fibroblasts were placed in contact with the Globularia cordifolia extract according to the invention for 3 days. The cells were then exposed without said extract to an oxidative stress (hydrogen peroxide). After a further 3 days' contact with the Globularia cordifolia extract, the cells were again exposed to the same oxidative stress before being homogenized to measure residual intracellular creatine kinase activity. Activity was measured from the production of ATP from phosphocreatine and ADP. ATP is then measured from an enzymatic reaction leading to the formation of NADPH, readed at 340 nm. Results were standardized by measuring total protein (BCA). A fall in this membrane potential is a warning sign of ageing and cell death and it is therefore essential that this be maintained to preserve the mitochondrial ability to produce ATP. Membrane potential was measured using a specific label sensitive to mitochondrial proton micro-variations. The label exists in two forms, monomeric and polymeric, which have different emission spectra. A high membrane potential promotes the polymeric form. An increase in the monomer/polymer ratio (520 nm/590 nm) produces therefore a fall in Δψ. A high ratio is therefore less conducive to cell survival than a lower ratio. The same fibroblast cultures than used for creatine kinase there above were used.

sirtuin-1 = assay: Intracellular sirtuin-1 in human keratinocytes (ELISA); assay type: cell-based; conditions: Trolox at 500 μm
Description: Hormetic effects such as calorie restriction or contact with hormetic molecules increase sirtuin enzymes and the lifespan of different organisms. The sirtuins act particularly on FOXO factor deacetylation and prevent triggering of the production of apoptotic proteins. The sirtuins also stimulate cellular anti-oxidant defenses and purification mechanisms (detoxification) and help to preserve mitochondrial function and therefore energy production. This increases survival and resistance to stresses. Human keratinocytes were cultured in the presence or absence of the Globularia cordifolia extract for 6 days and were then grinded and the intracellular levels of sirtuin-1 were measured using an ELISA method. Results were standardized by parallel measurement of total protein (BCA).

Glutathion = Glutathion synthesis in keratinocytes; assay type: cell-based; conditions: Trolox at 0.012%
creatine kinase = assay: Residual intracellular creatine kinase activity in human dermal fibroblasts after H2O2 stress; assay type: cell-based; conditions: Trolox at 500 μm
Description: Creatine kinase is a ubiquitous enzyme which exists in two isoforms in the skin. It is used to store energy in cells and enables tissues to respond to urgent energy requirements. This enzyme converts creatine into phosphocreatine using ATP which is converted back to ADP. When necessary, the enzyme works in the reverse direction and returns energy. Its activity falls with age as it is one of the preferred targets of reactive oxygen groups. Maintaining and increasing the activity of this enzyme is therefore desirable. Human dermal fibroblasts were placed in contact with the Globularia cordifolia extract according to the invention for 3 days. The cells were then exposed without said extract to an oxidative stress (hydrogen peroxide). After a further 3 days' contact with the Globularia cordifolia extract, the cells were again exposed to the same oxidative stress before being homogenized to measure residual intracellular creatine kinase activity. Activity was measured from the production of ATP from phosphocreatine and ADP. ATP is then measured from an enzymatic reaction leading to the formation of NADPH, readed at 340 nm. Results were standardized by measuring total protein (BCA).

intracellular peroxide = assay: Endogenous peroxides in human keratinocytes (DCFH-DA probe); assay type: cell-based; conditions: Trolox at 500 μm
Protocol: This factor can be measured reliably using a probe called DCFH-DA, whose characteristic is to fluoresce in contact with peroxides once it entered the cell. Confluence human keratinocytes were placed in contact or not (negative control) for 24 h with the Globularia cordifolia extract until they grew to confluence. The cells were then exposed to and metabolized the DCFH label in a buffer. The label can then react with both intracellular peroxides. The medium was then replaced with one containing or not the Globularia cordifolia extract and the oxidizing agent model hydrogen peroxide (neither the medium nor the Globularia cordifolia extract reacts directly with H2O2). Fluorescence was read in order to estimate the level of the intracellular peroxide which had reacted with the label. The number of cells was quantified using a nuclear labeling method (Hoechst 33258).

proteasome = assay: Residual proteasome activity in human dermal fibroblasts after H2O2 stress; assay type: cell-based; conditions: Trolox 500 μm
Description: Human dermal fibroblasts were placed or not (negative control) in contact with the Globularia cordifolia extract until they grew to confluence. The Globularia cordifolia extract was then removed and the cells were exposed to the oxidant model, hydrogen peroxide, to produce accelerated ageing. After this stage, the cells were again exposed to the Globularia cordifolia extract for 3 days and then were reseeded and subjected to a further oxidative stress to amplify the effect of the initial stress. The cells were then homogenized and the residual proteasome activity measured by monitoring cleavage of a model fluorescent peptide. Results were standardized by parallel measurement of protein.

[3] = system: SOD (superoxide dismutase); assay: Intracellular SOD activity in human keratinocytes treated with hydrogen peroxide; assay type: cell-based; conditions: Trolox at 0.012%
Description: A preliminary test on the antioxidant skin potential had shown that human keratinocytes treated with the hydrogen peroxide, a model of oxidative stress, increased their intracellular activity of SOD (superoxide dismutase) by 22%*(p<0.01) compared to the negative control in the presence of the Globularia cordifolia extract.

DPPH anti-radical test = assay type: biochemical; conditions: positive control, 0003% of caffeic acid
Description: 2) DPPH Anti-Radical Test The DPPH (1, 1-diphenyl-2-picryl hydrazyl) is a stable free radical which is widely used for the detection of free radical scavengers. This molecule by losing its radical character is converted to DPPH2 (1, 1-diphenyl-2-picryl hydrazine). This conversion is accompanied by discoloration (purple→yellow) which can be monitored over time by spectrophotometry at 517 nm.

[4] = Anti-singlet-oxygen test (Rose Bengal, visible light, uric acid destruction); assay type: biochemical; conditions: positive control, caffeic acid at 0002%
Description: Molecular oxygen (O2) plays a vital role as an acceptor of the respiratory chain terminal electrons. However, this metabolism and others, as well as external factors, such as UV radiations, lead to the occurrence of certain derivatives particularly reactive (singlet oxygen, hydroxyl radical, superoxide anion), which will cause oxidative damage to lipids, proteins and nucleic acids, even in healthy bodies. Singlet oxygen is one of these very energetic and highly reactive forms of oxygen. It is possible to produce experimentally in vitro singlet oxygen with dyes and UVA photons or visible light. The test presented thereafter uses the Rose Bengal, a dye and visible light. The purpose of this test is to evaluate the degradation of uric acid by singlet oxygen formed from the Rose Bengal, under the action of visible light. The visualization of the production of singlet oxygen is obtained by following the destruction of uric acid at 292 nm. In the presence of a compound capable of neutralizing singlet oxygen, this destruction will be slowed. The caffeic acid at 0002% is used as a positive control of an anti-singlet-oxygen activity Data in Table 3 below.

Sequence of bovine serum albumin (BSA) (P02769 25-607): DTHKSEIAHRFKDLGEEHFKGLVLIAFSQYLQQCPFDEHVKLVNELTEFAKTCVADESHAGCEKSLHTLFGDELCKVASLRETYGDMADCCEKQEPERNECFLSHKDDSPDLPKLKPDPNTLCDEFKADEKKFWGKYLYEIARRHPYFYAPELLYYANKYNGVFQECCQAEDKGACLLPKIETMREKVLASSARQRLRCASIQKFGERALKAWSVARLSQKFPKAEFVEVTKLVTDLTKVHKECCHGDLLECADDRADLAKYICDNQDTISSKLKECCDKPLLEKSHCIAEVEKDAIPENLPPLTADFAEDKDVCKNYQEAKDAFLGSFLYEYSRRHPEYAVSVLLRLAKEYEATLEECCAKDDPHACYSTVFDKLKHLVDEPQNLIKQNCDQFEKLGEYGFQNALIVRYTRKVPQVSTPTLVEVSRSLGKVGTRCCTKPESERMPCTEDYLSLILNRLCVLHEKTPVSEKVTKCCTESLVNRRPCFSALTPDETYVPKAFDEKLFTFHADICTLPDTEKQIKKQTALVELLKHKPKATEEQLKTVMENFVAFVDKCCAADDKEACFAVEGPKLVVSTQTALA

N=C(N)NN [Aminoguanidine]
Glycation % Change, positive control ([1]; aminoguanidine at 0.03%): Positive control aminoguanidine at 0.03%: −85%; p < 0.01.
glycation inhibition versus the control ([1]; positive control, 0.03% Aminoguanidine): 85%

Cc1c(C)c2c(c(C)c1O)CCC(C)(C(=O)O)O2 (centres unmarked) [Trolox]
Mitochondrial membrane potential % Change, positive control [2]: Positive control Trolox at 500 μm: +36%; p < 0.05.
Sirtuin-1 % Change, positive control (sirtuin-1): Positive control Trolox at 500 μm: +27%; p < 0.05.
GSH, positive control (Glutathion): 53%
Creatin kinase activity % Change, positive control (creatine kinase): Positive control Trolox at 500 μm: +28%; p < 0.05.
Intracellular peroxide % Change, positive control (intracellular peroxide): Positive control Trolox at 500 μm: −91%; (p < 0.01).
proteasome activity % Change, positive control (proteasome): Positive control Trolox 500 μm: +24%; (p < 0.05).
SOD, positive control [3]: 21%

O=C(O)/C=C/c1ccc(O)c(O)c1 [caffeic acid]
anti-radical activity versus the control (DPPH anti-radical test): −85%
anti-singlet-oxygen activity versus the control [4]: +73%
